Reference: BindingDB's records for patent US9150581 (Research Triangle Institute, 2015)

Target: Isoform Alpha-4-2 of Neuronal acetylcholine receptor subunit alpha-4 (Alpha-4-2) (Rattus norvegicus, UniProt P09483)
Test: Inhibition Assay

Sequence of Isoform Alpha-4-2 of Neuronal acetylcholine receptor subunit alpha-4 (Alpha-4-2) (P09483 as listed by the source): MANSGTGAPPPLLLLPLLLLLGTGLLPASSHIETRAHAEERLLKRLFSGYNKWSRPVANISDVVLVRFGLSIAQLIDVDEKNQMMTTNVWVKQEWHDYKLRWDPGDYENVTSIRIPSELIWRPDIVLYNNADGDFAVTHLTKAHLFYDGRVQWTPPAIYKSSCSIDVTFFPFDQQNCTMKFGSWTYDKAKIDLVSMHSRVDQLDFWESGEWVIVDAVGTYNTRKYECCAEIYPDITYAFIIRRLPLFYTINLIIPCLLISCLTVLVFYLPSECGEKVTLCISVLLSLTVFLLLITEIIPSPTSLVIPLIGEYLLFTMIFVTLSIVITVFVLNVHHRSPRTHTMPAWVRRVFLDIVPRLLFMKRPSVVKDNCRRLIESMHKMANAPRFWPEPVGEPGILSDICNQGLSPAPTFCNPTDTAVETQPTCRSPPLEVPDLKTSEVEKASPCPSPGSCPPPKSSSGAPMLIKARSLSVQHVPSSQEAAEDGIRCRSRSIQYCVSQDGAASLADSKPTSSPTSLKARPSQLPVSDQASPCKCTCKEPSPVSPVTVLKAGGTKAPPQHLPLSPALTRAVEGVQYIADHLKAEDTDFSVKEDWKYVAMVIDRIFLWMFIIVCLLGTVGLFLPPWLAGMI

Fc1ncc(C2CC3CCC2N3)cc1-c1ccccc1 (stereo not drawn) [US9150581, RTI-7527-(-)-47]
Ki: 0.26 nM

Fc1ncc(C2CC3CCC2N3)cc1-c1cccc(Cl)c1 (racemic) [US9150581, RTI-7527-98]
Ki: 0.073 nM
